# Source: ChEMBL document CHEMBL1201862, “PubChem BioAssay data set” (2004)
#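 Values below derive from 48-hour exposures of cells grown in 96-well plates, with endpoints linearly interpolated between the two concentrations bracketing the appropriate inhibition level. GI50 is the concentration that inhibits growth by half.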 Activity calls are given as the source filed them. No stated cut-off is given here; in the data, active = GI50 up to about 1.1 µM and inactive = higher.
# Columns and labels:
# Assay in all cases: NCI tumour cell line growth inhibition, 48 h
# [1] = system: A498
# [2] = system: A549
# [3] = system: ACHN
# [4] = system: CCRF-CEM
# [5] = system: DMS-114
# [6] = system: DMS-273
# [7] = system: EKVX
# [8] = system: HCT-116
# [9] = system: HL-60
# [10] = system: HOP-62
# [11] = system: HOP-92
# [12] = system: HT-29
# [13] = system: IGROV-1
# [14] = system: KM-20L2
# [15] = system: KM12
# [16] = system: M14
# [17] = system: M19-MEL
# [18] = system: MOLT-4
# [19] = system: NCI-H23
# [20] = system: NCI-H460
# [21] = system: NCI-H522
# [22] = system: OVCAR-5
# [23] = system: OVCAR-8
# [24] = system: RXF 393
# [25] = system: RXF 631
# [26] = system: SF-295
# [27] = system: SK-MEL-28
# [28] = system: SK-OV-3
# [29] = system: SNB-19
# [30] = system: SNB-78
# [31] = system: SR
# [32] = system: TK-10
# [33] = system: U-251
# [34] = system: UACC-257
# [35] = system: UACC-62
# [36] = system: UO-31
# [37] = system: 786-0
# [38] = system: CAKI-1
# [39] = system: COLO 205
# [40] = system: DLD-1
# [41] = system: HCC 2998
# [42] = system: HCT-15
# [43] = system: HOP-18
# [44] = system: K562
# [45] = system: LOX IMVI
# [46] = system: LXFL 529
# [47] = system: Malme-3M
# [48] = system: SF-268
# [49] = system: SF-539
# [50] = system: SK-MEL-2
# [51] = system: SN12C
# [52] = system: SNB-75
# [53] = system: SW-620
structure (smiles),measurement,setting,value
NC(CCc1nc(-c2cccc([N+](=O)[O-])c2)cs1)C(=O)O (stereo not drawn),GI50,[1],> 100 µM (inactive)
same,GI50,[2],> 100 µM (inactive)
same,GI50,[3],> 100 µM (inactive)
same,GI50,[4],> 100 µM (inactive)
same,GI50,[5],> 100 µM (inactive)
same,GI50,[6],> 100 µM (inactive)
same,GI50,[7],> 100 µM (inactive)
same,GI50,[8],> 100 µM (inactive)
same,GI50,[9],> 100 µM (inactive)
same,GI50,[10],> 100 µM (inactive)
same,GI50,[11],> 100 µM (inactive)
same,GI50,[12],> 100 µM (inactive)
same,GI50,[13],> 100 µM (inactive)
same,GI50,[14],> 100 µM (inactive)
same,GI50,[15],> 100 µM (inactive)
same,GI50,[16],> 100 µM (inactive)
same,GI50,[17],> 100 µM (inactive)
same,GI50,[18],> 100 µM (inactive)
same,GI50,[19],> 100 µM (inactive)
same,GI50,[20],> 100 µM (inactive)
same,GI50,[21],> 100 µM (inactive)
same,GI50,[22],> 100 µM (inactive)
same,GI50,[23],> 100 µM (inactive)
same,GI50,[24],> 100 µM (inactive)
same,GI50,[25],> 100 µM (inactive)
same,GI50,[26],> 100 µM (inactive)
same,GI50,[27],> 100 µM (inactive)
same,GI50,[28],> 100 µM (inactive)
same,GI50,[29],> 100 µM (inactive)
same,GI50,[30],> 100 µM (inactive)
same,GI50,[31],> 100 µM (inactive)
same,GI50,[32],> 100 µM (inactive)
same,GI50,[33],> 100 µM (inactive)
same,GI50,[34],> 100 µM (inactive)
same,GI50,[35],> 100 µM (inactive)
same,GI50,[36],> 100 µM (inactive)
C1CCCCc2nc3c(nc2CCC1)c1nc2c(nc1c1nc4c(nc31)CCCCCCCC4)CCCCCCCC2,GI50,[37],> 100 µM (inactive)
same,GI50,[1],> 100 µM (inactive)
same,GI50,[2],> 100 µM (inactive)
same,GI50,[3],> 100 µM (inactive)
same,GI50,[38],> 10 µM (inactive)
same,GI50,[4],> 100 µM (inactive)
same,GI50,[39],> 100 µM (inactive)
same,GI50,[40],> 100 µM (inactive)
same,GI50,[41],> 100 µM (inactive)
same,GI50,[8],> 100 µM (inactive)
same,GI50,[42],> 100 µM
same,GI50,[9],> 100 µM (inactive)
same,GI50,[43],> 100 µM (inactive)
same,GI50,[10],82.6 µM (inactive)
same,GI50,[11],> 100 µM (inactive)
same,GI50,[12],> 100 µM (inactive)
same,GI50,[13],> 100 µM (inactive)
same,GI50,[44],> 100 µM (inactive)
same,GI50,[14],> 100 µM (inactive)
same,GI50,[15],> 100 µM (inactive)
same,GI50,[45],> 100 µM (inactive)
same,GI50,[46],> 100 µM (inactive)
same,GI50,[16],> 100 µM (inactive)
same,GI50,[18],> 100 µM (inactive)
same,GI50,[47],> 100 µM (inactive)
same,GI50,[19],> 100 µM (inactive)
same,GI50,[20],> 100 µM (inactive)
same,GI50,[22],> 100 µM (inactive)
same,GI50,[23],> 100 µM (inactive)
same,GI50,[25],> 100 µM (inactive)
same,GI50,[48],> 100 µM (inactive)
same,GI50,[26],> 100 µM (inactive)
same,GI50,[49],> 100 µM (inactive)
same,GI50,[27],> 100 µM (inactive)
same,GI50,[50],> 100 µM (inactive)
same,GI50,[28],> 100 µM (inactive)
same,GI50,[51],> 100 µM (inactive)
same,GI50,[29],> 100 µM (inactive)
same,GI50,[52],> 100 µM (inactive)
same,GI50,[30],> 100 µM (inactive)
same,GI50,[31],> 100 µM (inactive)
same,GI50,[53],> 100 µM (inactive)
same,GI50,[32],> 100 µM (inactive)
same,GI50,[33],> 100 µM (inactive)
same,GI50,[34],> 100 µM (inactive)
same,GI50,[35],> 100 µM (inactive)
same,GI50,[36],> 100 µM (inactive)
